# Assay: structure-activity relationship for anti-inflammatory activity (FIG. 3)
# Details: SAR results
# From the text: The loss or modification of the 5-methoxy results in reduced efficacy in DOx/2Cx compounds.
# We determined that DOx/2Cx structures with a modified or missing 5-methoxy have reduced anti-inflammatory activity (FIG. 3). […] Without wishing to be bound by theory, the 5-methoxy of the DOx/2Cx compounds can engage residues in the binding pocket similar to those that engage the 4-OH of tryptamines, although the residues engaged by tryptamines have not been elucidated because the crystal structure of a tryptamine in the 5-HT2A receptor has not yet been published. […] Thus, without wishing to be bound by theory, a water molecule also must be present there to form a hydrogen bond bridge from the oxygen to N343.
# The SAR results as shown in FIG. 3 are consistent with engagement of TM6 N343 by the 5-methoxy or 4-OH of DOx/2Cx or tryptamines, respectively, through a hydrogen bond bridge with a water molecule to produce the conformational change to recruit anti-inflammatory effectors to the activated receptor.
smiles,measurement,value
"CN(C)CCc1c[nH]c2ccccc12 [N,N-DMT, N,N-dimethyltryptamine]",anti-inflammatory efficacy/activity,complete loss of efficacy
